From US4178284A, “Octapeptides” (American Home Products Corporation, priority 1978, dated 1979)

What was measured:
growth hormone release = test: growth hormone release, serum concentration, procedure of Lien et al. Febs. Letters 88 208-210 (1978); assay type: in vivo; conditions: 2 milligrams per kilogram; control 55±8 ng/ml; p<0.05
Description: Illustrative of the growth hormone releasing ability of the compounds of this invention is the activity of des-(66-88)-β-endorphin, representative of the other compounds, which at 2 milligrams per kilogram caused growth hormone release to result in a serum concentration of 380±124 ng/ml. as related to the control concentration of 55±8 ng/ml. at a confidence level of p<0.05, following the procedure of Lien et al. Febs. Letters 88 208-210 (1978).

analgesia [1] = test: analgesia on intracerebroventricular administration; assay type: in vivo
analgesia [2] = conditions: Loh et al.; cited from earlier work
analgesia [3] = conditions: Tseng et al.; cited from earlier work
[4] = system: growth hormone and prolactin release; conditions: rat; Dupont et al., Rivier et al.; cited from earlier work

| Substance | growth hormone serum concentration (growth hormone release) [ng/mL] | intracerebroventricular analgesic activity (analgesia [1]) | analgesic activity by intracerebral administration (analgesia [2]) | analgesic activity by intravenous injection (analgesia [3]) | growth hormone release stimulation [4] | prolactin release stimulation [4] |
| --- | --- | --- | --- | --- | --- | --- |
| L-Tyrosyl-glycyl-glycyl-L-phenylalanyl-L-methionyl-L-lysyl-glycyl-L-glutamine diacetate [des-(66-88)-β-endorphin] | 380 ± 124 | intracerebroventricular analgesic agents | – | – | – | – |
| H-Tyr-Gly-Gly-Phe-Met-Thr-Ser-Glu-Lys-Ser-Gln-Thr-Pro-Leu-Val-Thr-Leu-Phe-Lys-Asn-Ala-Ile-Ile-Lys-Asn-Ala-His-Lys-Lys-Gly-Gln-OH (H-YGGFMTSEKSQTPLVTLFKNAIIKNAHKKGQ-OH) [β-Endorphin, naturally occurring peptide isolated by Bradbury et al. and Li et al] | – | – | potent analgesic activity | potent analgesic activity | growth hormone and prolactin release stimulation | growth hormone and prolactin release stimulation |
